Experimental data taken from paper PMC7992105 (Medicinal chemistry research : an international journal for …, 2020).

Molecular target: CB2 (cannabinoid receptor subtype 2) (Homo sapiens, UniProt P34972)
Format: binding

CB2 (cannabinoid receptor subtype 2), sequence (P34972 whole entry): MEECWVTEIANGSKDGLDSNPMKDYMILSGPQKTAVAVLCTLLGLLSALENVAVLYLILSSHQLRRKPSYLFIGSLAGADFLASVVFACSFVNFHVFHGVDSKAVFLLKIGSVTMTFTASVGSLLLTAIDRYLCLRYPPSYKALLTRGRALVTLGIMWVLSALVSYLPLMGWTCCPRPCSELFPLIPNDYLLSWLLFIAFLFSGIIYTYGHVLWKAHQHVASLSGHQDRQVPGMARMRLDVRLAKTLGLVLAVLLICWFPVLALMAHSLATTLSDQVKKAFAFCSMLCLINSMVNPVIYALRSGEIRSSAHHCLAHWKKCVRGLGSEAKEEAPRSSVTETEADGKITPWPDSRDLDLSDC

Row | SMILES | Ki
1 | O=C1c2ccccc2NC(=N/N=C/c2cccs2)[C@@H]2CCCN12 [4g, (S,E)-11-[2-(2-thiophenylmethylene)hydrazono]-pyrrolo[2,1-c][1,4]benzodiazepine] | 490 nM
2 | O=C1c2ccccc2NC(=N/N=C/c2c[nH]c3ccccc23)[C@@H]2CCCN12 [4h, (S,E)-11-[2-(3-indolylmethylene)hydrazono]-pyrrolo[2,1-c][1,4]benzodiazepine] | 4700 nM
